From patent US10681909B2, “Herbicidal triazoles” (FMC Corporation, priority 2014, dated 2020)

How the values were obtained:
windgrass = assay: Test D preemergence; assay type: in vivo, Apera spica-venti; settings: for Plant response rating (0 to 100), Windgrass: 16 g ai/ha, 0 is no effect, 100 is complete control; for Plant response rating: Windgrass: scale 0 to 100
Text: (§1) Seeds of plant species selected from bluegrass (annual bluegrass, Poa annua), blackgrass (Alopecurus myosuroides), canarygrass (Phalaris minor), chickweed (common chickweed, Stellaria media), galium (catchweed bedstraw, Galium aparine), bromegrass, down (downy bromegrass, Bromus tectorum), Russian thistle (Salsola kali), field poppy (Papaver rhoeas), field violet (Viola arvensis), foxtail, green (green foxtail, Setaria viridis), deadnettle (henbit deadnettle, Lamium amplexicaule), ryegrass, Ital. (Italian ryegrass, Lolium multiflorum), kochia (Kochia scoparia), lambsquarters (Chenopodium album), oilseed rape (Brassica napus), pigweed (Amaranthus retroflexus), chamomile (scentless chamomile, Matricaria inodora), speedwell (bird's-eye speedwell, Veronica persica), barley, spring (spring barley, Hordeum vulgare), wheat, spring (spring wheat, Triticum aestivum), buckwheat, wild (wild buckwheat, Polygonum convolvulus), wild mustard (Sinapis arvensis), oat, wild (wild oat, Avena fatua), radish, wild (wild radish, Raphanus raphanistrum), […]), barley, winter (winter barley, Hordeum vulgare), and wheat, winter (winter wheat, Triticum aestivum) were planted into a silt loam soil and treated preemergence with test chemicals formulated in a non-phytotoxic solvent mixture which included a surfactant. At the same time, these species were planted in pots containing Sunshine Redi-Earth® planting medium comprising spaghnum peat moss, vermiculite, starter nutrients and dolomitic limestone and treated with postemergence applications of the test chemicals formulated in the same manner. Plants ranged in height from 2 to 18 cm (1- to 4-leaf stage). Treated plants and controls were maintained in a controlled growth environment for 14 to 21 d after which time all species were compared to controls and visually evaluated. […] A dash (-) response means no test result.

Russian thistle = assay: Test D postemergence; assay type: in vivo, Salsola kali; settings: scale 0 to 100
Text: as §1

speedwell = assay: Test D preemergence; assay type: in vivo, Veronica persica; settings: for Plant response rating (0 to 100), Speedwell: 16 g ai/ha, 0 is no effect, 100 is complete control; for Plant response rating: Speedwell: scale 0 to 100
Text: as §1

blackgrass [1] = assay: Test C preemergence; assay type: in vivo, Alopecurus myosuroides; settings: for Plant response rating (scale of 0 to 100 where 0 is no effect and 100 is complete control): Blackgrass, preemergence; for Blackgrass plant response rating (0 to 100): Preemergence, visual rating after 13 to 15 d
In short: (§2)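 Surfactant-containing, non-phytotoxic solvent formulations of each compound were applied either preemergence to seeds in a loam soil–sand blend or postemergence to plants 2 to 18 cm tall (1- to 4-leaf stage). Postemergence plants were grown in peat moss–vermiculite medium.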

lambsquarters = assay: Test C preemergence; assay type: in vivo, Chenopodium album; settings: for Plant response rating (scale of 0 to 100 where 0 is no effect and 100 is complete control): Lambsquarters, preemergence; for Lambsquarters plant response rating (0 to 100): Preemergence, visual rating after 13 to 15 d
In short: as §2

ryegrass, Italian = assay: Test A postemergence; assay type: in vivo, Lolium multiflorum; settings: 0 to 100 scale (0 no effect, 100 complete control), approx. 10 d
In short: (§3)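 Visual 0–100 ratings (0 no effect, 100 complete control) made roughly 10 days after treatment, comparing greenhouse-grown plants to untreated controls. Formulated test chemicals, with surfactant, went either as directed soil spray at planting or onto 2–10 cm seedlings bearing one to two leaves.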

ryegrass, Ital. = assay: Test D preemergence; assay type: in vivo, Lolium multiflorum; settings: for Plant response rating (0 to 100), Ryegrass, Ital.: 16 g ai/ha, 0 is no effect, 100 is complete control; for Plant response rating: Ryegrass, Ital.: scale 0 to 100
Text: as §1

field poppy = assay: Test D preemergence; assay type: in vivo, Papaver rhoeas; settings: for Plant response rating (0 to 100), Field Poppy: 16 g ai/ha, 0 is no effect, 100 is complete control; for Plant response rating: Field Poppy: scale 0 to 100
Text: as §1

bromegrass, down = assay: Test D postemergence; assay type: in vivo, Bromus tectorum; settings: scale 0 to 100
Text: as §1

radish, wild = assay: Test D postemergence; assay type: in vivo, Raphanus raphanistrum; settings: scale 0 to 100
Text: as §1

oat, wild = assay: Test D postemergence; assay type: in vivo, Avena fatua; settings: scale 0 to 100
Text: as §1

field violet = assay: Test D preemergence; assay type: in vivo, Viola arvensis; settings: for Plant response rating (0 to 100), Field Violet: 16 g ai/ha, 0 is no effect, 100 is complete control; for Plant response rating: Field Violet: scale 0 to 100
Text: as §1

blackgrass [2] = assay: Test D postemergence; assay type: in vivo, Alopecurus myosuroides; settings: scale 0 to 100
Text: as §1

blackgrass [3] = assay: Test A postemergence; assay type: in vivo, Alopecurus myosuroides; settings: 0 to 100 scale (0 no effect, 100 complete control), approx. 10 d
In short: as §3

## CCOc1nc(-c2ccc(C(F)(F)F)cc2)nn1Cc1ccnc(C(F)(F)F)c1 [Compound 35, 4-[[5-ethoxy-3-[4-(trifluoromethyl)phenyl]-1H-1,2,4-triazole-1-yl]methyl]-2-(trifluoromethyl)pyridine]
windgrass
  Plant response rating (0 to 100), Windgrass: 70
windgrass; 62 g ai/ha
  Plant response rating: Windgrass: 85
windgrass; 125 g ai/ha
  Plant response rating: Windgrass: 100
Russian thistle; 16 g ai/ha
  Plant response rating: Russian Thistle: 70
Russian thistle; 31 g ai/ha
  Plant response rating: Russian Thistle: 75
Russian thistle; 62 g ai/ha
  Plant response rating: Russian Thistle: 80
Russian thistle; 125 g ai/ha
  Plant response rating: Russian Thistle: 85
speedwell
  Plant response rating (0 to 100), Speedwell: 100
speedwell; 62 g ai/ha
  Plant response rating: Speedwell: 100
speedwell; 125 g ai/ha
  Plant response rating: Speedwell: 100
Blackgrass [1]; 125 g ai/ha
  Plant response rating (scale of 0 to 100 where 0 is no effect and 100 is complete control): 90
Blackgrass [1]; 250 g ai/ha
  Plant response rating (scale of 0 to 100 where 0 is no effect and 100 is complete control): 90
Blackgrass [1]; 31 g ai/ha
  Blackgrass plant response rating (0 to 100): 90
Blackgrass [1]; 62 g ai/ha
  Blackgrass plant response rating (0 to 100): 85
lambsquarters; 125 g ai/ha
  Plant response rating (scale of 0 to 100 where 0 is no effect and 100 is complete control): 100
lambsquarters; 250 g ai/ha
  Plant response rating (scale of 0 to 100 where 0 is no effect and 100 is complete control): 98
lambsquarters; 31 g ai/ha
  Lambsquarters plant response rating (0 to 100): 98
lambsquarters; 62 g ai/ha
  Lambsquarters plant response rating (0 to 100): 98
ryegrass, Italian; 31 g ai/ha
  Plant response rating, Ryegrass, Italian: 30
ryegrass, Italian; 125 g ai/ha
  Plant response rating, Ryegrass, Italian: 60
ryegrass, Ital.
  Plant response rating (0 to 100), Ryegrass, Ital.: 35
ryegrass, Ital.; 62 g ai/ha
  Plant response rating: Ryegrass, Ital.: 65
ryegrass, Ital.; 125 g ai/ha
  Plant response rating: Ryegrass, Ital.: 70
Field poppy
  Plant response rating (0 to 100), Field Poppy: 100
Field poppy; 62 g ai/ha
  Plant response rating: Field Poppy: 100
Field poppy; 125 g ai/ha
  Plant response rating: Field Poppy: 100
bromegrass, down; 16 g ai/ha
  Plant response rating: Bromegrass, Down: 40
bromegrass, down; 31 g ai/ha
  Plant response rating: Bromegrass, Down: 55
bromegrass, down; 62 g ai/ha
  Plant response rating: Bromegrass, Down: 60
bromegrass, down; 125 g ai/ha
  Plant response rating: Bromegrass, Down: 75
radish, wild; 16 g ai/ha
  Plant response rating: Radish, Wild: 85
radish, wild; 31 g ai/ha
  Plant response rating: Radish, Wild: 100
radish, wild; 62 g ai/ha
  Plant response rating: Radish, Wild: 100
radish, wild; 125 g ai/ha
  Plant response rating: Radish, Wild: 100
oat, wild; 16 g ai/ha
  Plant response rating: Oat, Wild: 40
oat, wild; 31 g ai/ha
  Plant response rating: Oat, Wild: 65
oat, wild; 62 g ai/ha
  Plant response rating: Oat, Wild: 75
oat, wild; 125 g ai/ha
  Plant response rating: Oat, Wild: 80
Field violet
  Plant response rating (0 to 100), Field Violet: 95
Field violet; 62 g ai/ha
  Plant response rating: Field Violet: 100
Field violet; 125 g ai/ha
  Plant response rating: Field Violet: 100
Blackgrass [2]; 16 g ai/ha
  Plant response rating: Blackgrass: 35
Blackgrass [2]; 31 g ai/ha
  Plant response rating: Blackgrass: 55
Blackgrass [2]; 62 g ai/ha
  Plant response rating: Blackgrass: 70
Blackgrass [2]; 125 g ai/ha
  Plant response rating: Blackgrass: 80
Blackgrass [3]; 31 g ai/ha
  Plant response rating, Blackgrass: 30
Blackgrass [3]; 125 g ai/ha
  Plant response rating, Blackgrass: 50

## Fc1ccc(-c2nc(OCC(F)(F)F)n(Cc3ccnc(C(F)(F)F)c3)n2)cc1 [Compound 30]
windgrass
  Plant response rating (0 to 100), Windgrass: 25
windgrass; 62 g ai/ha
  Plant response rating: Windgrass: 100
windgrass; 125 g ai/ha
  Plant response rating: Windgrass: 100
Russian thistle; 16 g ai/ha
  Plant response rating: Russian Thistle: 80
Russian thistle; 31 g ai/ha
  Plant response rating: Russian Thistle: 90
Russian thistle; 62 g ai/ha
  Plant response rating: Russian Thistle: 90
Russian thistle; 125 g ai/ha
  Plant response rating: Russian Thistle: 90
speedwell
  Plant response rating (0 to 100), Speedwell: 100
speedwell; 62 g ai/ha
  Plant response rating: Speedwell: 100
speedwell; 125 g ai/ha
  Plant response rating: Speedwell: 100
Blackgrass [1]; 125 g ai/ha
  Plant response rating (scale of 0 to 100 where 0 is no effect and 100 is complete control): 90
Blackgrass [1]; 250 g ai/ha
  Plant response rating (scale of 0 to 100 where 0 is no effect and 100 is complete control): 90
Blackgrass [1]; 31 g ai/ha
  Blackgrass plant response rating (0 to 100): 60
Blackgrass [1]; 62 g ai/ha
  Blackgrass plant response rating (0 to 100): 80
lambsquarters; 125 g ai/ha
  Plant response rating (scale of 0 to 100 where 0 is no effect and 100 is complete control): 95
lambsquarters; 250 g ai/ha
  Plant response rating (scale of 0 to 100 where 0 is no effect and 100 is complete control): 98
lambsquarters; 31 g ai/ha
  Lambsquarters plant response rating (0 to 100): 98
lambsquarters; 62 g ai/ha
  Lambsquarters plant response rating (0 to 100): 98
ryegrass, Italian; 125 g ai/ha
  Plant response rating, Ryegrass, Italian: 50
ryegrass, Italian; 500 g ai/ha
  Plant response rating, Ryegrass, Italian: 80
ryegrass, Ital.
  Plant response rating (0 to 100), Ryegrass, Ital.: 40
ryegrass, Ital.; 62 g ai/ha
  Plant response rating: Ryegrass, Ital.: 55
ryegrass, Ital.; 125 g ai/ha
  Plant response rating: Ryegrass, Ital.: 70
Field poppy
  Plant response rating (0 to 100), Field Poppy: 95
Field poppy; 62 g ai/ha
  Plant response rating: Field Poppy: 100
Field poppy; 125 g ai/ha
  Plant response rating: Field Poppy: 100
bromegrass, down; 16 g ai/ha
  Plant response rating: Bromegrass, Down: 30
bromegrass, down; 31 g ai/ha
  Plant response rating: Bromegrass, Down: 45
bromegrass, down; 62 g ai/ha
  Plant response rating: Bromegrass, Down: 65
bromegrass, down; 125 g ai/ha
  Plant response rating: Bromegrass, Down: 65
radish, wild; 16 g ai/ha
  Plant response rating: Radish, Wild: 95
radish, wild; 31 g ai/ha
  Plant response rating: Radish, Wild: 95
radish, wild; 62 g ai/ha
  Plant response rating: Radish, Wild: 98
radish, wild; 125 g ai/ha
  Plant response rating: Radish, Wild: 100
oat, wild; 16 g ai/ha
  Plant response rating: Oat, Wild: 40
oat, wild; 31 g ai/ha
  Plant response rating: Oat, Wild: 40
oat, wild; 62 g ai/ha
  Plant response rating: Oat, Wild: 65
oat, wild; 125 g ai/ha
  Plant response rating: Oat, Wild: 75
Field violet
  Plant response rating (0 to 100), Field Violet: 100
Field violet; 62 g ai/ha
  Plant response rating: Field Violet: 100
Field violet; 125 g ai/ha
  Plant response rating: Field Violet: 100
Blackgrass [2]; 16 g ai/ha
  Plant response rating: Blackgrass: 45
Blackgrass [2]; 31 g ai/ha
  Plant response rating: Blackgrass: 60
Blackgrass [2]; 62 g ai/ha
  Plant response rating: Blackgrass: 65
Blackgrass [2]; 125 g ai/ha
  Plant response rating: Blackgrass: 75
Blackgrass [3]; 125 g ai/ha
  Plant response rating, Blackgrass: 30
Blackgrass [3]; 500 g ai/ha
  Plant response rating, Blackgrass: 80
